From patent US11198695B2, “Fused ring derivative having MGAT-2 inhibitory activity” (Shionogi & Co., Ltd., priority 2017, dated 2021)
Read-outs that look alike come from different tables or passages of the source.

Molecular target: recombinant human MGAT2 (Homo sapiens (Human), UniProt Q3SYC2)
Assay: Measurement of human MGAT2 inhibitory activity
Assay type: biochemical
Description: A full-length human MGAT2 gene to which a Flag-tag had been added at the N-terminal was inserted into pFastBac (from Invitrogen). A recombinant baculovirus was produced in accordance with the protocol for a Bac-to-Bac baculovirus expression system (produced by Invitrogen), and Sf-9 cells were infected therewith. The cells were collected and sonicated, and then the membrane fraction was collected through centrifugation. Western blotting analysis with an anti-Flag antibody was performed for the membrane fraction to confirm expression, and the membrane fraction was used as a recombinant human MGAT2 enzyme solution.
Solutions of the compounds of the present invention in DMSO were each aliquoted into 0.2-μL portions in a 384-well polystyrene microplate produced by Corning Incorporated, and 5 μL of an enzyme solution prepared with an assay buffer (100 mmol/L phosphate buffer (pH 7.4) containing 2 mmol/L DTT) and 5 μL of a substrate solution (100 mmol/L phosphate buffer (pH 7.4), 30 μmol/L 2-Oleoylglycerol, 10 μmol/L Oleoyl-CoA) were added thereto, and the resultant was stirred and centrifuged, and incubated in a moist chamber at room temperature for 1 hour. After enzymatic reaction, 50 μL of a quenching solution (containing 0.2 μmol/L Diolein-d5, 0.4% formic acid, and 50% isopropanol) containing Internal Standard (IS) was added to terminate the reaction, and the resultant was sealed in a plate produced by Shimadzu GLC Ltd., and then stirred and centrifuged, and measurement was performed by using an electrospray ionization method with a RapidFire360 and Agilent 6550 Q-TOF mass spectrometer. Diolein as a reaction product (P) of 2-Oleoylglycerol as the substrate and an ammonium adduct ion of the IS were detected, and the peak intensity ratio, P/IS, was calculated from the peak heights to evaluate the inhibitory activity. Inhibitory activities with/without addition of enzyme were defined as Control (+)/Control (−), respectively, and the respective % inhibitions were defined as 0% inhibition and 100% inhibition. The inhibitory activity was calculated from formula below with TIBCO Spotfire (produced by TIBCO Software Inc.): Inhibitory activity (%)=[1−{Sample−Control(−)}/{Control(+)−Control(−)}]*100 where Sample indicates a peak intensity ratio: P/IS, when the compound of the present invention was added.

[1] = read-out: IC50 (concentration exhibiting 50% enzyme inhibition), Table 52

Chain of recombinant human MGAT2 (Q3SYC2 whole entry): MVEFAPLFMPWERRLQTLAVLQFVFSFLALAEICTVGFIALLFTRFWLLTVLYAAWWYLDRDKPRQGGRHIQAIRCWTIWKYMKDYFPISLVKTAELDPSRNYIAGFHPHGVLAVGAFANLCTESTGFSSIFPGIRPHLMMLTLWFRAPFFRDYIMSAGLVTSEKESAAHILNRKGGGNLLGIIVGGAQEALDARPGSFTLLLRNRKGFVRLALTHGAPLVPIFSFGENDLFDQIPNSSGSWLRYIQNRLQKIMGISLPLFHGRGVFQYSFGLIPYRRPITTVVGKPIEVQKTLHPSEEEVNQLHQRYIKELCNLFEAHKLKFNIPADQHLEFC

IC50 (read-out: IC50 (concentration exhibiting 50% enzyme inhibition), Table 53) [nM]	IC50 [1] [nM]	Structure (SMILES)
6.15	–	Cc1ccc(-n2nc3c(c2NC(=O)CS(C)(=N)=O)C(=O)N[C@@]2(CCc4cc(OCC(F)(F)F)ccc42)C3)nc1 (single isomer, unassigned) [II-275]
–	540	O=C(Nc1nn(CCC2CC2)c2c1C(=O)N[C@@]1(CCc3cc(OCCCC(F)(F)F)ccc31)C2)c1ccno1 [Compound I-1]
–	1.35	CS(=O)(=O)CC(=O)Nc1c2c(nn1CCC1CC1)C[C@]1(CCc3cc(OCCCC(F)(F)F)ccc31)NC2=O [Compound I-2]
–	9.22	CS(=O)(=O)CC(=O)Nc1c2c(nn1CCC1CC1)C[C@]1(CCc3cc(C4CC4)ccc31)NC2=O [Compound I-3]
–	330	CC(=O)Nc1c2c(nn1CCC1CC1)C[C@]1(CCc3cc(OCCCC(F)(F)F)ccc31)NC2=O [Compound I-4]
–	500	CS(=O)(=O)CC(=O)Nc1nn(CCC2CC2)c2c1C(=O)N[C@@]1(CCc3cc(OCCCC(F)(F)F)ccc31)C2 [Compound I-5]
–	11.9	CS(=O)(=O)CC(=O)Nc1c2c(nn1CCC1CC1)C[C@]1(CCc3cc(C(F)(F)F)ccc31)NC2=O [Compound I-6]
–	15	CS(=O)(=O)CC(=O)Nc1c2c(nn1CCC1CC1)C[C@]1(CCc3cc(OCC(F)F)ccc31)NC2=O [Compound I-7]
–	70	O=C1N[C@@]2(CCc3cc(OCCCC(F)(F)F)ccc32)Cc2nn(CCC3CC3)c(C(=O)O)c21 [Compound I-9]
–	500	CNC(=O)c1c2c(nn1CCC1CC1)C[C@]1(CCc3cc(OCCCC(F)(F)F)ccc31)NC2=O [Compound I-11]
–	90	CNS(=O)(=O)Nc1c2c(nn1CCC1CC1)C[C@]1(CCc3cc(OCCCC(F)(F)F)ccc31)NC2=O [Compound I-13]
–	380	CC(C)NC(=O)Nc1c2c(nn1CCC1CC1)C[C@]1(CCc3cc(OCCCC(F)(F)F)ccc31)NC2=O [Compound I-14]
–	280	COc1ccccc1C(=O)Nc1c2c(nn1CCC1CC1)C[C@]1(CCc3cc(OCCCC(F)(F)F)ccc31)NC2=O [Compound I-15]
–	150	O=C(Nc1c2c(nn1CCC1CC1)C[C@]1(CCc3cc(OCCCC(F)(F)F)ccc31)NC2=O)c1ccc(F)cc1 [Compound I-16]
–	160	COc1cccc(C(=O)Nc2c3c(nn2CCC2CC2)C[C@]2(CCc4cc(OCCCC(F)(F)F)ccc42)NC3=O)c1 [Compound I-17]
–	9.1	O=C(Nc1c2c(nn1CCC1CC1)C[C@]1(CCc3cc(OCCCC(F)(F)F)ccc31)NC2=O)c1ccno1 [Compound I-18]
–	38	O=C(Nc1c2c(nn1CCC1CC1)C[C@]1(CCc3cc(OCCCC(F)(F)F)ccc31)NC2=O)c1ccccc1 [Compound I-19]
–	21	O=C(CC(F)F)Nc1c2c(nn1CCC1CC1)C[C@]1(CCc3cc(OCCCC(F)(F)F)ccc31)NC2=O [Compound I-20]
–	17	CS(=O)(=O)CC(=O)NCc1c2c(nn1CCC1CC1)C[C@]1(CCc3cc(OCCCC(F)(F)F)ccc31)NC2=O [Compound I-21]
–	190	CS(=O)(=O)NCc1c2c(nn1CCC1CC1)C[C@]1(CCc3cc(OCCCC(F)(F)F)ccc31)NC2=O [Compound I-22]
–	49	N#CCC(=O)Nc1c2c(nn1CCC1CC1)C[C@]1(CCc3cc(OCCCC(F)(F)F)ccc31)NC2=O [Compound I-25]
–	15	O=C(CC(F)(F)F)Nc1c2c(nn1CCC1CC1)C[C@]1(CCc3cc(OCCCC(F)(F)F)ccc31)NC2=O [Compound I-26]
–	600	O=C(CN1CCCC1=O)Nc1c2c(nn1CCC1CC1)C[C@]1(CCc3cc(OCCCC(F)(F)F)ccc31)NC2=O [Compound I-27]
–	435	CC(=O)NCC(=O)Nc1c2c(nn1CCC1CC1)C[C@]1(CCc3cc(OCCCC(F)(F)F)ccc31)NC2=O [Compound I-28]
–	113	COCC(=O)Nc1c2c(nn1CCC1CC1)C[C@]1(CCc3cc(OCCCC(F)(F)F)ccc31)NC2=O [Compound I-29]
–	175	Cn1cc(CC(=O)Nc2c3c(nn2CCC2CC2)C[C@]2(CCc4cc(OCCCC(F)(F)F)ccc42)NC3=O)cn1 [Compound I-30]
–	3.2	CNS(=O)(=O)CC(=O)Nc1c2c(nn1CCC1CC1)C[C@]1(CCc3cc(OCCCC(F)(F)F)ccc31)NC2=O [Compound I-31]
–	17	O=C(COC(F)(F)F)Nc1c2c(nn1CCC1CC1)C[C@]1(CCc3cc(OCCCC(F)(F)F)ccc31)NC2=O [Compound I-32]

IC50 (read-out: IC50 (concentration exhibiting 50% enzyme inhibition), Table 53) [nM]	IC50 [1] [nM]	Structure (SMILES)
–	14.7	CS(=O)(=O)CC(=O)Nc1c2c(nn1-c1ccc(OC(F)(F)F)cc1)C[C@]1(CCc3cc(OCCCC(F)(F)F)ccc31)NC2=O [Compound I-33]
–	6.8	CS(=O)(=O)CC(=O)Nc1c2c(nn1CCC1CC1)C[C@]1(CCc3cc(CCC(F)(F)F)ccc31)NC2=O [Compound I-35]
–	27	CS(=O)(=O)CC(=O)Nc1c2c(nn1CCC1CC1)C[C@]1(CCc3cc(Br)ccc31)NC2=O [Compound I-36]
–	625	CS(=O)(=O)Nc1c2c(nn1CCC1CC1)C[C@]1(CCc3cc(OCCCC(F)(F)F)ccc31)NC2=O [Compound I-38]
–	930	CS(=O)(=O)CC(=O)Nc1c2c(nn1-c1cccc3ccccc13)C[C@]1(CCc3cc(OCCCC(F)(F)F)ccc31)NC2=O [Compound I-39]
–	18	CS(=O)(=O)CC(=O)Nc1c2c(nn1C1CCCCC1)C[C@]1(CCc3cc(OCCCC(F)(F)F)ccc31)NC2=O [Compound I-40]
–	79	CS(=O)(=O)CC(=O)Nc1c2c(nn1-c1cccc3c1CCC3)C[C@]1(CCc3cc(OCCCC(F)(F)F)ccc31)NC2=O [Compound I-41]
–	2.5	Cc1ccc(-n2nc3c(c2NC(=O)CS(C)(=O)=O)C(=O)N[C@@]2(CCc4cc(OCCCC(F)(F)F)ccc42)C3)cc1 [Compound I-42]
–	340	CS(=O)(=O)CC(=O)Nc1c2c(nn1-c1ccc(S(C)(=O)=O)cc1)C[C@]1(CCc3cc(OCCCC(F)(F)F)ccc31)NC2=O [Compound I-43]
–	3.9	CS(=O)(=O)CC(=O)Nc1c2c(nn1-c1ccc(C#N)cc1)C[C@]1(CCc3cc(OCCCC(F)(F)F)ccc31)NC2=O [Compound I-44]
–	41.5	Cn1c(-n2nc3c(c2NC(=O)CS(C)(=O)=O)C(=O)N[C@@]2(CCc4cc(OCCCC(F)(F)F)ccc42)C3)nc2ccccc21 [Compound I-45]
–	440	CN(C)CCn1nc2c(c1NC(=O)CS(C)(=O)=O)C(=O)N[C@@]1(CCc3cc(OCCCC(F)(F)F)ccc31)C2 [Compound I-46]
–	265	CS(=O)(=O)CC(=O)Nc1c2c(nn1CCN1CCCC1)C[C@]1(CCc3cc(OCCCC(F)(F)F)ccc31)NC2=O [Compound I-47]
–	195	Cc1ccc(-n2nc(NC(=O)CS(C)(=O)=O)c3c2C[C@]2(CCc4cc(OCCCC(F)(F)F)ccc42)NC3=O)cc1 [Compound I-48]
–	1.9	CS(=O)(=O)CC(=O)Nc1c2c(nn1CCC1CC1)C[C@]1(CCOc3cc(OCC(F)(F)F)ccc31)NC2=O [Compound I-49]
–	190	CS(=O)(=O)CC(=O)Nc1c2c(nn1CCCc1ccccc1)C[C@]1(CCc3cc(OCCCC(F)(F)F)ccc31)NC2=O [Compound I-50]
–	16	CCCCn1nc2c(c1NC(=O)CS(C)(=O)=O)C(=O)N[C@@]1(CCc3cc(OCCCC(F)(F)F)ccc31)C2 [Compound I-51]
–	24	CS(=O)(=O)CC(=O)Nc1c2c(nn1CCc1ccccc1)C[C@]1(CCc3cc(OCCCC(F)(F)F)ccc31)NC2=O [Compound I-52]
–	13	CS(=O)(=O)CC(=O)Nc1c2c(nn1CCOCC(F)F)C[C@]1(CCc3cc(OCCCC(F)(F)F)ccc31)NC2=O [Compound I-53]
–	48	CCCn1nc2c(c1NC(=O)CS(C)(=O)=O)C(=O)N[C@@]1(CCc3cc(OCCCC(F)(F)F)ccc31)C2 [Compound I-54]
–	25	CS(=O)(=O)CC(=O)Nc1c2c(nn1CC1CCCO1)C[C@]1(CCc3cc(OCCCC(F)(F)F)ccc31)NC2=O (stereo partly shown) [Compound I-56]
–	10	CS(=O)(=O)CC(=O)Nc1c2c(nn1CCC1CCCCC1)C[C@]1(CCc3cc(OCCCC(F)(F)F)ccc31)NC2=O [Compound I-57]
–	5.5	COCCCn1nc2c(c1NC(=O)CS(C)(=O)=O)C(=O)N[C@@]1(CCc3cc(OCCCC(F)(F)F)ccc31)C2 [Compound I-58]
–	14	CS(=O)(=O)CC(=O)Nc1c2c(nn1CCn1cccn1)C[C@]1(CCc3cc(OCCCC(F)(F)F)ccc31)NC2=O [Compound I-59]
–	94	CS(=O)(=O)CC(=O)Nc1c2c(nn1CCOC(F)(F)F)C[C@]1(CCc3cc(OCCCC(F)(F)F)ccc31)NC2=O [Compound I-60]
–	340	CS(=O)(=O)CC(=O)Nc1c2c(nn1CC1CCC(C(F)(F)F)CC1)C[C@]1(CCc3cc(OCCCC(F)(F)F)ccc31)NC2=O (stereo partly shown) [Compound I-61]
–	250	CS(=O)(=O)CC(=O)Nc1nn(CCCc2ccccc2)c2c1C(=O)N[C@@]1(CCc3cc(OCCCC(F)(F)F)ccc31)C2 [Compound I-62]
